According to patent US9278990B2, “Substituted nucleotide analogs” (priority 2010, dated 2016):
Residue numbers refer to the chain shown, from its start. Like-named read-outs stand apart in the source and are kept apart here.

Legend:
[1] = tested on: Huh-7 cells containing the self-replicating, subgenomic HCV replicon; assay: HCV replicon assay (luciferase reporter); assay type: cell-based; details: Hepatitis C virus, Huh-7, 72 h
Description: Huh-7 cells containing the self-replicating, subgenomic HCV replicon with a stable luciferase (LUC) reporter were cultured in Dulbecco's modified Eagle's medium (DMEM) containing 2 mM L-glutamine and supplemented with 10% heat-inactivated fetal bovine serum (FBS), 1% penicillin-streptomyocin, 1% nonessential amino acids, and 0.5 mg/mL G418.
On the first day, 5,000 HCV replicon cells were plated per well in a 96-well plate. On the following day, test compounds were solubilized in 100% DMSO to 100× the desired final testing concentration. Each compound was then serially diluted (1:3) up to 9 different concentrations. Compounds in 100% DMSO are reduced to 10% DMSO by diluting 1:10 in cell culture media. The compounds were diluted to 10% DMSO with cell culture media, which were used to dose the HCV replicon cells in 96-well format. The final DMSO concentration was 1%. The HCV replicon cells were incubated at 37° C. for 72 hours. At 72 hours, cells were processed when the cells are still subconfluent. Compounds that reduce the LUC signal are determined by Bright-Glo Luciferase Assay (Promega, Madison, Wis.). Percent Inhibition was determined for each compound concentration in relation to the control cells (untreated HCV replicon) to calculate the EC50.

[2] = biological target: T1, NS5B570-Con1 (Delta-21) (Hepatitis C virus genotype 1b, UniProt Q9WMX2); assay: NS5B inhibition assay; assay type: biochemical, HCV
T1 construct: NS5B570-Con1 (Delta-21)
Description: The enzyme activity of NS5B570-Con1 (Delta-21) was measured as an incorporation of tritiated NMP into acid-insoluble RNA products. The complementary IRES (cIRES) RNA sequence was used as a template, corresponding to 377 nucleotides from the 3′-end of HCV (−) strand RNA of the Con-1 strain, with a base content of 21% Ade, 23% Ura, 28% Cyt, and 28% Gua. The cIRES RNA was transcribed in vitro using a T7 transcription kit (Ambion, Inc.) and purified using the Qiagen RNeasy maxi kit. HCV polymerase reactions contained 50 nM NS5B570-Con1, 50 nM cIRES RNA, about 0.5 μCi tritiated NTP, 1 μM of competing cold NTP, 20 mM NaCl, 40 mM Tris-HCl (pH 8.0), 4 mM dithiothreitol, and 4 mM MgCl2. Standard reactions were incubated for 2 hours at 37° C., in the presence of increasing concentration of inhibitor. At the end of the reaction, RNA was precipitated with 10% TCA, and acid-insoluble RNA products were filtered on a size exclusion 96-well plate. After washing of the plate, scintillation liquid was added and radio labeled RNA products were detected according to standard procedures with a Trilux Topcount scintillation counter.

[3] = tested on: HCV genotype 1b HCV replicon harbored in Huh7 cells; assay: Combination testing in HCV replicon (CalcuSyn CI and MacSynergy II synergy volume); assay type: cell-based; details: combination of compound 3b with the listed combination compound; MacSynergy II (Bliss independence); 72 h; 25-100 synergistic, >100 strongly synergistic
Description: Two or more test compounds were tested in combination with each other using an HCV genotype 1b HCV replicon harbored in Huh7 cells with a stable luciferase (LUC) reporter. Cells were cultured under standard conditions in Dulbecco's modified Eagle's medium (DMEM; Mediatech Inc, Herndon, Va.) containing 10% heat-inactivated fetal bovine serum (FBS; Mediatech Inc, Herndon, Va.) 2 mM L-glutamine, and nonessential amino acids (JRH Biosciences). HCV replicon cells were plated in a 96-well plate at a density of 10^4 cells per well in DMEM with 10% FBS. […] The cells were incubated with no compound as a control, with the test compounds, or the combination of compounds for 72 h. The direct effects of the combination of the test compounds were examined using a luciferase (LUC) based reporter as determined by the Bright-Glo Luciferase Assay (Promega, Madison, Wis.). Dose-response curves were determined for individual compounds and fixed ratio combinations of two or more test compounds.
The effects of test compound combinations were evaluated by two separate methods. In the Loewe additivity model, the experimental replicon data was analyzed by using CalcuSyn (Biosoft, Ferguson, Mo.), a computer program based on the method of Chou and Talalay. The program uses the experimental data to calculate a combination index (CI) value for each experimental combination tested. A CI value of <1 indicates a synergistic effect, a CI value of 1 indicates an additive effect, and a CI value of >1 indicates an antagonistic effect.
The second method utilized for evaluating combination effects used a program called MacSynergy II. MacSynergy II software was kindly provided by Dr. M. Prichard (University of Michigan). The Prichard Model allows for a three-dimensional examination of drug interactions and a calculation of the synergy volume (units: μM^2 %) generated from running the replicon assay using a checkerboard combination of two or more inhibitors. The volumes of synergy (positive volumes) or antagonism (negative volumes) represent the relative quantity of synergism or antagonism per change in the concentrations of the two drugs. Synergy and antagonism volumes are defined based on the Bliss independence model. In this model, synergy volumes of less than −25 indicate antagonistic interactions, volumes in the −25-25 range indicate additive behavior, volumes in the 25-100 range indicate synergistic behavior and volumes >100 indicate strong synergistic behavior.

[4] = IC50 value, incorporation of tritiated NMP into acid-insoluble RNA, 2 hours at 37° C.

CCC[C@H](NP(=S)(OC[C@H]1O[C@@H](n2ccc(=O)[nH]c2=O)[C@](C)(O)[C@@H]1O)Oc1ccccc1)C(=O)OC(C)C (stereo partly shown) was tested, and the EC50 [1] was less than 1000 nM.

CC(C)OC(=O)[C@H](Cc1ccccc1)NP(=S)(OC[C@H]1O[C@@H](n2ccc(=O)[nH]c2=O)[C@](C)(O)[C@@H]1O)Oc1ccccc1 (stereo partly shown) gave an EC50 [1] of 1000 to 10000 nM.

With CC(C)OC(=O)C(C)NP(=S)(OC[C@H]1O[C@@H](n2cnc3c(=O)[nH]c(N)nc32)C(C)(O)C1O)Oc1ccccc1 (stereo partly shown) the EC50 [1] was less than 1000 nM.

C[C@@]1(O)[C@H](O)[C@@H](COP(O)(=S)OP(=O)(O)OP(=O)(O)O)O[C@H]1n1ccc(=O)[nH]c1=O (single isomer, unassigned) [Compound 5a] gave an IC50 [2, 4] of 10000 to 100000 nM.

C[C@@]1(O)[C@H](O)[C@@H](COP(O)(=S)OP(=O)(O)OP(=O)(O)O)O[C@H]1n1ccc(=O)[nH]c1=O (single isomer, unassigned) [Compound 5b] showed an IC50 [2, 4] of less than 1000 nM.

C[C@@]1(F)[C@H](O)[C@@H](COP(O)(=S)OP(=O)(O)OP(=O)(O)O)O[C@H]1n1ccc(=O)[nH]c1=O (single isomer, unassigned) [Compound 5c] was tested, and the IC50 [2, 4] was 1000 to 10000 nM.

C[C@@]1(F)[C@H](O)[C@@H](COP(O)(=S)OP(=O)(O)OP(=O)(O)O)O[C@H]1n1ccc(=O)[nH]c1=O (single isomer, unassigned) [Compound 5d] was tested, and the IC50 [2, 4] was 10000 to 100000 nM.

C[C@@]1(F)[C@H](O)[C@@H](COP(O)(=S)OP(=O)(O)OP(=O)(O)O)O[C@H]1n1cnc2c(=O)[nH]c(N)nc21 (single isomer, unassigned) [Compound 5e] was tested, and the IC50 [2, 4] was less than 1000 nM.

With C[C@@]1(F)[C@H](O)[C@@H](COP(O)(=S)OP(=O)(O)OP(=O)(O)O)O[C@H]1n1cnc2c(=O)[nH]c(N)nc21 (single isomer, unassigned) [Compound 5f] the IC50 ([2]; read-out: IC50 value, incorporation of tritiated NMP into acid-insoluble RNA, 2 hours at 37° C.) was less than 1000 nM.

Work on C[C@@]1(O)[C@H](O)[C@@H](COP(O)(=S)OP(=O)(O)OP(=O)(O)O)O[C@H]1n1cnc2c(=O)[nH]c(N)nc21 (single isomer, unassigned) [Compound 5g] yielded an IC50 [2, 4] of less than 1000 nM.

With C[C@@]1(O)[C@H](O)[C@@H](COP(O)(=S)OP(=O)(O)OP(=O)(O)O)O[C@H]1n1cnc2c(=O)[nH]c(N)nc21 (single isomer, unassigned) [Compound 5h] the IC50 [2, 4] was 1000 to 10000 nM.

With COc1ccc2c(O[C@@H]3C[C@H]4C(=O)N[C@]5(C(=O)O)C[C@H]5/C=C\CCCCC[C@H](NC(=O)OC5CCCC5)C(=O)N4C3)cc(-c3csc(NC(C)C)n3)nc2c1 [BILN-2061] the “Synergy Volume” value [3] was 31 μM^2%.

COC(=O)N[C@H](C(=O)N1CCC[C@H]1c1nc(-c2ccc(-c3ccc(-c4c[nH]c([C@@H]5CCCN5C(=O)[C@@H](NC(=O)OC)C(C)C)n4)cc3)cc2)c[nH]1)C(C)C [BMS-790052] was tested, and the “Synergy Volume” value [3] was 26 μM^2%.

With CCc1cc(CC[C@]2(C3CCCC3)CC(O)=C(Cc3nc4nc(C)cc(C)n4n3)C(=O)O2)cc(CC)n1 [Filibuvir] the “Synergy Volume” value [3] was 23 μM^2%.

Fc1ccccc1-c1nc2ccn(Cc3ccc(-c4ccc(C(F)(F)F)cc4C(F)(F)F)nn3)cc-2n1 [GS-9190] was tested, and the “Synergy Volume” value [3] was 79 μM^2%.

With CNC(=O)c1c(-c2ccc(F)cc2)oc2cc(N(CCO)S(C)(=O)=O)c(C3CC3)cc12 [HCV-796] the “Synergy Volume” value [3] was 31 μM^2%.

For COc1nc(N)nc2c1ncn2[C@@H]1O[C@H](COP(=O)(N[C@@H](C)C(=O)OCC(C)(C)C)Oc2cccc3ccccc23)[C@@H](O)[C@@]1(C)O (stereo partly shown) [INX-189], the “Synergy Volume” value [3] was 65 μM^2%.

For CC(C)(C)OC(=O)N[C@H]1CCCCC/C=C\[C@@H]2C[C@@]2(C(=O)NS(=O)(=O)C2CC2)NC(=O)[C@@H]2C[C@@H](OC(=O)N3Cc4cccc(F)c4C3)CN2C1=O [ITMN-191], the “Synergy Volume” value [3] was 126 μM^2%.

CCOc1nc(N)nc2c1ncn2[C@@H]1O[C@@H]2COP(=O)(OC(C)C)O[C@H]2[C@@]1(C)F (stereo partly shown) [PSI-938] was tested, and the “Synergy Volume” value [3] was 27 μM^2%.

C[C@@]1(F)[C@H](O)[C@@H](CO)O[C@H]1n1ccc(N)nc1=O [PSI-6130] was tested, and the “Synergy Volume” value [3] was 15 μM^2%.

With CC(C)OC(=O)[C@H](C)NP(=O)(OC[C@H]1O[C@@H](n2ccc(=O)[nH]c2=O)[C@](C)(F)[C@@H]1O)Oc1ccccc1 (stereo partly shown) [PSI-7851] the “Synergy Volume” value [3] was 0 μM^2%.

NC(=O)c1ncn([C@@H]2O[C@H](CO)[C@@H](O)[C@H]2O)n1 [Ribavirin, ribavirin] was tested, and the “Synergy Volume” value [3] was 22 μM^2%.

In the case of COc1ccc2c(O[C@@H]3C[C@H]4C(=O)N[C@]5(C(=O)NS(=O)(=O)C6CC6)C[C@H]5/C=C\CCCCN(C)C(=O)[C@@H]4C3)cc(-c3nc(C(C)C)cs3)nc2c1C [TMC-435], the “Synergy Volume” value [3] is reported as 126 μM^2%.

With CC(C)(C)C#Cc1cc(N(C(=O)[C@H]2CC[C@H](C)CC2)[C@H]2CC[C@H](O)CC2)c(C(=O)O)s1 [VX-222] the “Synergy Volume” value [3] was 38 μM^2%.

For CCC[C@H](NC(=O)[C@@H]1[C@H]2CCC[C@H]2CN1C(=O)[C@@H](NC(=O)[C@@H](NC(=O)c1cnccn1)C1CCCCC1)C(C)(C)C)C(=O)C(=O)NC1CC1 [VX-950, Telaprevir], the “Synergy Volume” value [3] was 76 μM^2%.

B1: IFN-Lambda 1 (protein, UniProt Q8IU54 20-200, looked up)
Interferon lambda-1: GPVPTSKPTTTGKGCHIGRFKSLSPQELASFKKARDALEESLKLKNWSCSSPVFPGNWDLRLLQVRERPVALEAELALTLKVLEAAAGPALEDVLDQPLHTLHHILSQLQACIQPQPTAGPRPRGRLHHWLHRLQEAPKKESAGCLEASVTFNLFRLLTRDLKYVADGNLCLRTSTHPEST
B1 was tested, and the “Synergy Volume” value [3] was 116 μM^2%.

B2: IFN-Lambda 2 (protein, UniProt Q8IZJ0 26-200, looked up)
Interferon lambda-2: VPVARLHGALPDARGCHIAQFKSLSPQELQAFKRAKDALEESLLLKDCRCHSRLFPRTWDLRQLQVRERPMALEAELALTLKVLEATADTDPALVDVLDQPLHTLHHILSQFRACIQPQPTAGPRTRGRLHHWLYRLQEAPKKESPGCLEASVTFNLFRLLTRDLNCVASGDLCV
With B2 the “Synergy Volume” value [3] was 34 μM^2%.

B3: IFN-Lambda 3 (protein, UniProt Q8IZI9 22-196, looked up)
Interferon lambda-3: B2 Interferon lambda-2 with H7R, R49K, H51R, M71V, V95G, F112L, Y135H
With B3 the “Synergy Volume” value [3] was 35 μM^2%.
